Reference: patent US6861529B2, “Cycloalkypyrrole-3-carboxylic acid derivatives and heterocycloalkylpyrrole-3-carboxylic acid derivatives” (Pfizer Inc, priority 2001, dated 2005)
pKi: −log10 of the molar value.

Molecular target: benzodiazepine site of the GABAA receptor
Experiment: Binding assay (3H-Ro15-1788 displacement, rat cortical tissue homogenate)
Settings: 0.5 nM 3H-Ro15-1788 [3H-Flumazenil], 30 min at 4° C., Cheng-Prussof equation

In the case of `CC1CCc2[nH]cc(C(=O)Nc3ccccn3)c2C(=O)C1` (stereo not drawn) [Example 2, 6-Methyl-4-oxo-1,4,5,6,7,8-hexahydro-cydohepta[b]pyrrole-3-carboxylic acid pyridin-2-ylamide], the pKi was 8.70.

Compound `CC(C)C1CCc2[nH]cc(C(=O)Nc3ccccn3)c2C(=O)C1` (stereo not drawn) [Example 3, 6-Isopropyl-4-oxo-1,4,5,6,7,8-hexahydro-cyclohepta[b]pyrrole-3-carboxylic acid pyridin-2-ylamide] has a pKi of 9.00.

`O=C(Nc1ccccn1)c1c[nH]c2c1C(=O)CC(c1ccc(F)cc1)CC2` (stereo not drawn) [Example 4, 6-(4-Fluoro-phenyl)-4-oxo-1,4,5,6,7,8-hexahydrocyclohepta[b]pyrrole-3-carboxylic acid pyridin-2-ylamide] showed a pKi of 8.15.

For `COc1ccc(C2CCc3[nH]cc(C(=O)Nc4ccccn4)c3C(=O)C2)cc1F` (stereo not drawn) [Example 5, 6-(3-Fluoro-4-methoxy-phenyl)-4-oxo-1,4,5,6,7,8-hexahydro-cyclohepta[b]pyrrole-3carboxylic acid pyridin-2-ylamide], the pKi was 8.10.

`O=C(Nc1ccccn1)c1c[nH]c2c1C(=O)C1CN(Cc3ccccc3)CC1CC2` (stereo not drawn) [Example 6, 6-Benzyl-4-oxo-4,4a,5,6,7,7a,8,9-octahydro-1H-1,6-diaza-cyclopenta[f]azulene-3-carboxylic acid pyridin-2-ylamide] was tested, and the pKi was 8.40.

`O=C(Nc1ccccn1)c1c[nH]c2c1C(=O)C1CNCC1CC2` (stereo not drawn) [Example 7, 4-Oxo-4,4a,5,6,7,7a,8,9-octahydro-1H-1,6-diaza-cyclopenta[f]azulene-3-carboxylic acid pyridin-2-ylamide] gave a pKi of 8.15.

`CN1CC2CCc3[nH]cc(C(=O)Nc4ccccn4)c3C(=O)C2C1` (stereo not drawn) [Example 8, 6-Methyl-4-oxo-4,4a,5,6,7,7a,8,9-octahydro-1H-1,6-diaza-cyclopenta[f]azulene-3-carboxylic acid pyridin-2-ylamide] showed a pKi of 8.10.

Compound `CN(C)CC1CCc2[nH]cc(C(=O)Nc3ccccn3)c2C(=O)C1` (stereo not drawn) [Example 9, 6-Dimethylaminomethyl-4-oxo-1,4,5,6,7,8-hexahydro-cyclohepta[b]pyrrole-3-carboxylic acid pyridin-2-ylamide] has a pKi of 7.64.

In the case of `O=C(Nc1ccccn1)C1C=NC2=C1C(Nc1ccccn1)CCCC2` (stereo not drawn) [Example 10, 4-(Pyridin-2-ylamino)-3,4,5,6,7,8-hexahydro-cyclohepta[b]pyrrole-3-carboxylic acid pyridin-2-ylamide], the pKi was 7.62.
